Test systems include CAKI-1 renal; EKVX NSCLC; SF-295 CNS; IGROV1 ovarian; HOP-62 NSCLC; MCF7 breast; UO-31 renal.
Assay in all cases: NCI-60 cell line screen, 48 h

SMILES strings stand for the structures.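 96-well plates; 48 h exposure; 5 concentrations. Endpoints by linear interpolation between flanking doses. Not reached: highest tested concentration assigned. GI50 marks 50% less growth. TGI denotes the concentration required for complete inhibition of growth.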

Take `O=C(Nc1cccc(-n2ccc3c(NC(=O)c4ccccc4)nccc32)c1)Nc1cc(C(F)(F)F)cc(C(F)(F)F)c1`: the GI50 in the assay with CAKI-1 renal was 1.53 µM; with EKVX NSCLC, 2.63 µM; in the assay on SF-295 CNS, 1.88 µM; in the assay with IGROV1 ovarian, 2.46 µM; in the assay with HOP-62 NSCLC it was 3.75 µM; with MCF7 breast, 1.65 µM. In addition, the GI50 with UO-31 renal is 2.4 µM. For the same molecule, the TGI in the assay on CAKI-1 renal is 4.32 µM; with EKVX NSCLC, more than 50 µM; in the assay with SF-295 CNS it was 30.5 µM; in the assay with IGROV1 ovarian, more than 50 µM; in the assay on HOP-62 NSCLC, more than 50 µM; in the assay with MCF7 breast it was more than 50 µM. Moreover, the TGI in the assay with UO-31 renal was more than 50 µM.

Take `NC(N)=N/N=C/c1nc2n(c1[N+](=O)[O-])CCS2`: the TGI in the assay on CAKI-1 renal was more than 100 µM; in the assay with EKVX NSCLC, 76.5 µM; with SF-295 CNS it was 98.4 µM; in the assay on IGROV1 ovarian, more than 100 µM; in the assay with HOP-62 NSCLC, more than 100 µM; in the assay on MCF7 breast it was more than 100 µM. The TGI with UO-31 renal is more than 100 µM.

With `N#CCc1n[nH]c(Cc2ccccc2)n1`, the TGI in the assay with CAKI-1 renal, in the assay on EKVX NSCLC, in the assay on SF-295 CNS, with IGROV1 ovarian, with HOP-62 NSCLC and in the assay on MCF7 breast was more than 100 µM in each case. Further, the TGI with UO-31 renal was more than 100 µM.

In the case of `O=C(c1ccccc1)N1CCN(C(=S)N(C(=O)c2ccccc2)c2ccccc2)C1=S`, the TGI with CAKI-1 renal stood at 7.5 µM; in the assay with EKVX NSCLC it was 19.5 µM; in the assay on SF-295 CNS, 31.6 µM; in the assay with IGROV1 ovarian it was 12.6 µM; in the assay with HOP-62 NSCLC, 26.3 µM; in the assay on MCF7 breast it was 10 µM. Moreover, in the assay with UO-31 renal, the TGI amounted to 6.43 µM.

For `COC(=O)C1C/C(=C/N(C)C)C(=S)N1` (stereo not given), the TGI with CAKI-1 renal, with EKVX NSCLC, in the assay with SF-295 CNS, in the assay on IGROV1 ovarian, in the assay on HOP-62 NSCLC and with MCF7 breast was more than 100 µM throughout. Besides, the TGI with UO-31 renal was more than 100 µM.

Consider `CCSc1sc(=Nc2ccc(N=c3sc(C)c(SC)s3)cc2)sc1-c1ccc(C)cc1`, for which the TGI with CAKI-1 renal, with EKVX NSCLC, in the assay with SF-295 CNS, in the assay with IGROV1 ovarian, with HOP-62 NSCLC and with MCF7 breast was more than 100 µM throughout. Also, in the assay with UO-31 renal, the TGI was more than 100 µM.

For `C[C@]12CC[C@H]3[C@@H](CC=C4C[C@@H](N5CCCC5)CC[C@@]43C)[C@@H]1C[C@H](N1CCOCC1)[C@@H]2O`, the TGI with CAKI-1 renal is more than 100 µM; in the assay with EKVX NSCLC, more than 100 µM; with SF-295 CNS, more than 100 µM; in the assay with IGROV1 ovarian, more than 100 µM; with HOP-62 NSCLC it was more than 100 µM; with MCF7 breast, more than 10 µM. In the assay on UO-31 renal, this molecule came in with a TGI of more than 100 µM.

For `CN(C)CCNC(=O)c1cccc2c(NCCN(C)C)c3ccccc3nc12`, the TGI came out at 12.7 µM with CAKI-1 renal; 8.03 µM in the assay with EKVX NSCLC; 17.6 µM with SF-295 CNS; 10.8 µM in the assay with IGROV1 ovarian; 13.2 µM in the assay on HOP-62 NSCLC; 12.8 µM with MCF7 breast. In the assay with UO-31 renal, the TGI worked out at 8.29 µM.

`Nc1nc(Cl)c(N)c(NCC2(CO)CC(OCc3ccccc3)C2)n1` (stereo not given): the TGI in the assay with CAKI-1 renal, in the assay on EKVX NSCLC, in the assay with SF-295 CNS, in the assay with IGROV1 ovarian, in the assay on HOP-62 NSCLC and in the assay on MCF7 breast was more than 100 µM in each case. This molecule came in with a TGI with UO-31 renal of more than 100 µM.

For the molecule `BrCCCCCOc1ccc(-c2c3ccccc3c(-c3ccc(OCCCCCBr)cc3)c3ccccc23)cc1`, the TGI in the assay on CAKI-1 renal, with EKVX NSCLC, with SF-295 CNS, with IGROV1 ovarian, in the assay on HOP-62 NSCLC and in the assay on MCF7 breast was more than 100 µM in each case. In the assay on UO-31 renal, this molecule registered a TGI of more than 100 µM.

As to `[N-]=[N+]=C1N=CN=C1c1ncn[nH]1`, the TGI was 37.5 µM in the assay with CAKI-1 renal; more than 100 µM with EKVX NSCLC; more than 100 µM with SF-295 CNS; more than 100 µM in the assay with IGROV1 ovarian; more than 100 µM in the assay on HOP-62 NSCLC; more than 100 µM in the assay with MCF7 breast. In the assay on UO-31 renal, this molecule came in with a TGI of 86.3 µM.

Turning to `O=C1NC(SSC2=NNC3(C(=O)N2)c2ccccc2-c2ccccc23)=NNC12c1ccccc1-c1ccccc12`, the TGI in the assay on CAKI-1 renal, with EKVX NSCLC, in the assay with SF-295 CNS, in the assay with IGROV1 ovarian, with HOP-62 NSCLC and in the assay on MCF7 breast was more than 10 µM in each case. This molecule displayed a TGI in the assay on UO-31 renal of more than 10 µM.

As to `COC(=O)CCC(=O)NC1=C(Nc2ccc(OC)cc2)C(=O)c2ccccc2C1=O`, the TGI in the assay on CAKI-1 renal stood at 40.2 µM; in the assay with EKVX NSCLC, 38.3 µM; in the assay with SF-295 CNS, 25.8 µM; with IGROV1 ovarian, 26 µM; in the assay with HOP-62 NSCLC, 33.2 µM; in the assay on MCF7 breast it was 18.8 µM. Further, the TGI in the assay on UO-31 renal worked out at 32.1 µM.

Regarding `Nn1c(COc2cccc(OCc3n[nH]c(=S)n3N)c2)n[nH]c1=S`, the TGI in the assay on CAKI-1 renal, with EKVX NSCLC, in the assay on SF-295 CNS, with IGROV1 ovarian, with HOP-62 NSCLC and with MCF7 breast was more than 100 µM each time. The same molecule had a TGI in the assay on UO-31 renal of more than 100 µM.
